One may read the kcat as the number of substrate molecules converted per active site and unit of time at saturation. One may read the Km as the concentration of substrate that gives half-maximal velocity. The IC50 is the concentration needed to halve the response being measured.

The source of these data is paper PMC3750255, “Inhibition of Mycoplasma pneumoniae growth by FDA-approved anticancer and antiviral nucleoside and nucleobase analogs” (BMC Microbiology, 2013).

One assay concerns Mpn TS. Nature of the assay: TS activity in total protein extracts of Mpn cultured with TFT. It counts as cell-based. Conditions: various concentrations of TFT, 70 hours culture. The method, then: Total proteins were extracted from these cultures and used to determine the TK and TS activity.
Mpn wild type cells were cultured in the presence of [^3H]-dT and different concentrations of TFT. The cells were incubated at 37°C for 70 hours and harvested. The total uptake and incorporation of [^3H]-dT were analysed, and TK and TS activity were determined in total protein extracts.
To determine the effect of TFT on TK and TS activity, Mpn wild type cells were cultured in 75 cm^2 tissue culture flasks containing 50 ml medium, inoculated with 3 ml of stock culture (1 × 10^9 cfu/ml), in the presence of [^3H]-dT (1 μCi ml^-1) and different concentrations of TFT. After 70 hours at 37°C the cultures were harvested and divided to two aliquots, one was used to determine total uptake/metabolism of radiolabeled dT and total proteins were extracted from the other aliquot and used to measure TK and TS activity using [^3H]-dT and [5-^3H]-dUMP as substrates.

Assay [1] has as its target T1, human TK2 (Homo sapiens, UniProt O00142).
T1 construct: made in house
T1 sequence (O00142 34-265): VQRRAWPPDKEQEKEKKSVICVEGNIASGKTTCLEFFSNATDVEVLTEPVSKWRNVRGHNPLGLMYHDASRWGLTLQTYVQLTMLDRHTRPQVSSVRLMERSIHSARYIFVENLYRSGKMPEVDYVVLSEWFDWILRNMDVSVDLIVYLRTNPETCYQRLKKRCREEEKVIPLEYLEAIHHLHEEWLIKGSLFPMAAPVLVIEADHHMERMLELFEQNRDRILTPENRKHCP
Nature of the assay: TFT phosphorylation kinetics, phosphoryl transfer assay. The class given is biochemical. Conditions: 100 μM [γ-32P]-ATP. The method, then:
Figure 3 Substrate saturation curves of TFT with human TK2 (A), human TK1 (B), and Ureaplasma TK (C). Kinetic assays with TFT were performed by using [γ-^32P]-ATP as the labelled substrate at fixed concentration and variable concentrations of TFT. The reaction products were separated by thin layer chromatography, and quantified as described in the experimental procedures.
Kinetic parameters for TFT were determined by using the phosphoryl transfer assays as previously described. Briefly, each reaction was performed in a total volume of 20 μl containing 50 mM Tris/HCl, pH 7.5, 0.5 mg/ml BSA, 5 mM DTT, 2 mM MgCl2, 15 mM NaF, variable concentrations of TFT, 0.1 mM [γ-^32P]-ATP, and 50 ng purified enzyme at 37°C for 20 min, and stopped by heating at 70°C for 2 min. After brief centrifugation, 1 μl supernatant was spotted onto a TLC plate (PEI-cellulose, Merck) and dried. The TLC plates were developed in isobutyric acid/ammonia/H2O (66:1:33). The reaction products were visualized and quantified by phosphoimaging analysis (Quantity One, Bio-Rad).

The target in the next assay is T2, Ureaplasma TK (Ureaplasma parvum serovar 3, UniProt Q9PPP5).
T2 construct: made in house
T2 sequence (Q9PPP5 1-223): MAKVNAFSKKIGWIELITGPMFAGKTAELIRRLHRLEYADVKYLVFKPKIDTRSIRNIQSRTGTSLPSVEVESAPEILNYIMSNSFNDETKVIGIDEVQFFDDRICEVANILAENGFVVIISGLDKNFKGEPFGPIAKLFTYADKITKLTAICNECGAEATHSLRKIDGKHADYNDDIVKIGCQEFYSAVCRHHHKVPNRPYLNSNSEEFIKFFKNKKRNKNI
Nature of the assay: Thymidine kinase inhibition with [3H]-dT as substrate. It counts as biochemical. Conditions: 10 μM tritium labelled thymidine. The method, then:
(§1) Thymidine kinase assay was performed using tritium labelled thymidine ([^3H]-dT) as substrate and various concentrations of the inhibitors essentially as previously described to determine the IC50 values of TFT and 5FdU.

For another assay, the target named is T3, human TK1 (Homo sapiens, UniProt P04183).
T3 construct: made in house
T3 sequence (P04183 1-234): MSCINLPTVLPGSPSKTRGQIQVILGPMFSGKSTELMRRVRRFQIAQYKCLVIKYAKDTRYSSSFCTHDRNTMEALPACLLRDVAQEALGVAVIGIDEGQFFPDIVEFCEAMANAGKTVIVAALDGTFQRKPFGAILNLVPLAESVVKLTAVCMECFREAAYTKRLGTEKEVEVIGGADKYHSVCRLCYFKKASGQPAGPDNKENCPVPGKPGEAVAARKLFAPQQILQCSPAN
Described as above. Conditions: 10 μM tritium labelled thymidine. The class given is biochemical. On the procedure:
as §1

Assay [2] concerns the target T1, human TK2. The assay is described as above. Conditions: 10 μM tritium labelled thymidine. The class given is biochemical. On the procedure: as §1
Another assay concerns the target T4, TK in Mpn extracts (Mycoplasmoides pneumoniae, UniProt P75070).
T4 construct: endogenous in cells; host or cells: Mycoplasma pneumoniae M129 total protein extract
T4 sequence (P75070 1-191): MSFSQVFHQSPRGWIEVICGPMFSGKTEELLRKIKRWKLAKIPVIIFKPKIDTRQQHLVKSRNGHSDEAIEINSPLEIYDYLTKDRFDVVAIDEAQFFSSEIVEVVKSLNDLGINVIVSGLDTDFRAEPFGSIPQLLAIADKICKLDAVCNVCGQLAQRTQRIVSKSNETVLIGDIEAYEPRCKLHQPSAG
Nature of the assay: Inhibition of dT phosphorylation in Mpn protein extracts. Conditions: 10 μM tritium labelled thymidine; read-out: IC50 Mpn extracts. It counts as biochemical. On the procedure: Both TFT and 5FdU are substrates of Mycoplasma and human TKs, as described above and earlier studies.
as §1

As to `O=c1[nH]c(=O)n([C@H]2C[C@H](O)[C@@H](CO)O2)cc1C(F)(F)F` [Trifluorothymidine (TFT), Trifluorothymidine], the “TS activity (in words)” value with Mpn TS is “unchanged”. Further, the kcat on human TK2 [1] amounted to 0.026 ± 0.003 s⁻¹. Besides, the Km on human TK2 [1] (TFT 1 – 100 μM) came out at 8.8 ± 3.8 µM. Further, the IC50 on Ureaplasma TK is 12 ± 4.2 µM; on human TK1 it was 9.7 ± 3.2 µM; at human TK2 [2], 80 ± 5.6 µM; at TK in Mpn extracts it was 9.1 ± 2.9 µM.
